Entries after “also recorded” stand apart in the source; their conditions may differ. Like-named read-outs stand apart in the source and are kept apart here.
Columns and labels:
human PMNs = type: cell-based
Protocol: A comprehensive human immune assay was established using the XCelligence in vitro impedance system that obtains real-time kinetics of target cell killing. (ACEA BioSciences, San Diego, Calif., Catalog No. 00380601040). Wild-type (wt) and engineered iPSCs were differentiated into endothelial cells for this assay. […] Some experimental groups were treated with IL-2 (1 ng/ml), which is a central cytokine involved in allograft rejection. The assays were run for a duration of 90 h which is the maximum time period iECs can be cultured in this system before the monolayer breaks down spontaneously.
The immune system not only distinguishes between “self” and “non-self”, but also reacts to “danger” signals: released by autologous cells in distress. Matzinger, Ann. Rev. Immunol. 12:991-1045 (1994), incorporated by reference herein in its entirety. Intracellular components, released by damaged cells, can act as adjuvants and boost immune activation to alarm the immune system of cell death. Because apoptosis activates programmed cell death pathways aimed at digesting intracellular proteins, apoptotic cells are considered weak releasers of danger signals. […] For our in vitro assays, 20,000 target cells were sonicated to disrupt their cell membrane and release DAMPs and the cell debris was added to prior grown and confluent target iEC layer in Xcelligence assays.
Thus, for DAMP-activated XCelligence assays, iECs were plated and in addition to the immune effector cells, 20,000 sonicated target cells were added at the same time. […]
Ligands for CD200R and PIRLα are CD200 and CD99, respectively. Recombinant human CD200 Fc chimera proteins (R&D Systems, Minneapolis, Minn., Catalog no. 2724-CD-050) and CD99 Fc chimera proteins (R&D Systems, Minneapolis, Minn., Catalog no. 3968-CD-050) engage these receptors. These Fc chimera proteins were added to the assays at 10 μg/ml. There is no known ligand for SIRL-1 but there is an activating monoclonal SIRL-1 antibody to trigger downstream inhibitory signaling (Steevels T A., Eur J. Immunol. 43(5):1297-308 (2013)). The human PMNs were activated via DAMPs or IL-2 and the killing of human wt and HIP iECs was assessed (FIG. 8).
BAY 85-8501 was used at 1 nM or 1 μM concentrations. The effector PMNs were stimulated with sonicated cells or IL-2.
Activating receptors include the family of toll-like receptors (TLRs) that are activated by a wide range of ligands including DAMPs. PMN activation pathways were inhibited by TAK-242 (MedChem Express, Monmouth Junction, N.J., Catalog No. HY-11109, 10 μM for in vitro Xcelligence assays), a small-molecule inhibitor of TLR-4-mediated signaling. Wild-type and HIP cells were used on the XCelligence platform using PMNs as effector cells (FIG. 13). Necrotic cells or IL-2 were used as PMN stimulators.

[1] = in mice; cited from earlier work
[2] = 10 μM, DAMP- or IL-2 activated PMNs
[3] = PMNs activated via DAMPs (necrotic/sonicated cells), Fc chimera proteins 10 μg/ml
[4] = PMNs stimulated with IL-2, Fc chimera proteins 10 μg/ml

## COc1cc(C(C)=O)ccc1O [Apocynin]
Human PMNs; [2]
  PMN killing of wt and HIP iECs: diminished

## COc1cc2c(c(OC)c1OC)-c1ccc(OC)c(=O)cc1[C@@H](NC(C)=O)CC2 [colchicine]
Human PMNs; 1 μM monotherapy, DAMP or IL-2 activated PMNs
  PMN killing of wt and HIP iECs: mild inhibitor; also recorded: only marginal efficacy

## CC[C@H](Nc1ncnc2[nH]cnc12)c1nc2cccc(F)c2c(=O)n1-c1ccccc1 [Idelalisib]
Human PMNs; [2]
  PMN killing of wt and HIP iECs: mildly diminished PMN killing

## CC1=C(C#N)[C@@H](c2ccc(C#N)cc2S(C)(=O)=O)N(C)C(=O)N1c1cccc(C(F)(F)F)c1 [BAY 85-8501]
Human PMNs; 1 nM, compared with 1 μM
  PMN killing of wt or HIP target cells: less effective
Human PMNs; 1 μM, PMNs activated via DAMPs from sonicated cells
  PMN killing of wt or HIP target cells: fully prevented
Human PMNs; 1 μM, in the presence of IL-2
  PMN killing of wt or HIP target cells: further delayed the target cell killing

## A1AT: Alpha-1 antitrypsin, Neutrophil Elastase inhibitor (Sigma-Aldrich A9024)
Human PMNs; 30 μM recombinant A1AT
  PMN killing of wt and HIP iECs: minorly effective; also recorded: some minor activity against PMN killing
[1]
  Half-life of A1AT: approx. 4.5 days

## CCOC(=O)C1=CCCC[C@H]1S(=O)(=O)Nc1ccc(F)cc1Cl [TAK-242]
Human PMNs; 10 μM, DAMPs compared with IL-2
  PMN killing of wt and HIP iECs, efficacy by stimulator: stronger
Human PMNs; 10 μM, IL-2
  PMN killing of wt and HIP iECs: still markedly reduced
Human PMNs; 10 μM, necrotic cells (DAMPs) or IL-2 as PMN stimulators
  PMN killing of wt and HIP iECs: diminished PMN killing

B1: CD99 Fc chimera: Recombinant CD99 Fc chimera protein (R&D Systems 3968-CD-050), ligand for PIRLα (protein)
chain: DGGFDLSDALPDNENKKPTAIPKKPSAGDDFDLGDAVVDGENDDPRPPNPPKPMPNPNPNHPSSSGSFSDADLADGVSGGEGKGGSDGGGSHRKEGEEAD
modifications: left off: a dimerising Fc or GST
notes: Recombinant CD99 Fc chimera protein (R&D Systems 3968-CD-050), ligand for PIRLα
Human PMNs; [3]
  PMN killing of wt and HIP iECs: prevented PMN killing
Human PMNs; [4]
  PMN killing of wt and HIP iECs: somewhat delayed
Human PMNs; PMNs stimulated with IL-2, Fc chimera proteins 10 μg/ml, listed as CD99
  PMN killing of wt and HIP iECs: delayed but not prevented

B2: CD200 Fc chimera: Recombinant human CD200 Fc chimera protein (R&D Systems 2724-CD-050), ligand for CD200R (protein)
chain: QVQVVTQDEREQLYTPASLKCSLQNAQEALIVTWQKKKAVSPENMVTFSENHGVVIQPAYKDKINITQLGLQNSTITFWNITLEDEGCYMCLFNTFGFGKISGTACLTVYVQPIVSLHYKFSEDHLNITCSATARPAPMVFWKVPRSGIENSTVTLSHPNGTTSVTSILHIKDPKNQVGKEVICQVLHLGTVTDFKQTVNKG
modifications: left off: a dimerising Fc or GST
notes: Recombinant human CD200 Fc chimera protein (R&D Systems 2724-CD-050), ligand for CD200R
Human PMNs; [3]
  PMN killing of wt and HIP iECs: prevented PMN killing
Human PMNs; [4]
  PMN killing of wt and HIP iECs: somewhat delayed
Human PMNs; PMNs stimulated with IL-2, Fc chimera proteins 10 μg/ml, listed as recombinant CD200
  PMN killing of wt and HIP iECs: delayed but not prevented

From patent US20230058557A1, “TRANSPLANTED CELL PROTECTION VIA INHIBITION OF POLYMORPHONUCLEAR CELLS” (The Regents of the University of California, priority 2020, published 2023)
